Reference: patent US20250281607A1, “MEDICAMENT FOR TREATMENT AND/OR PREVENTION OF CANCER” (TORAY INDUSTRIES, INC., priority 2021, published 2025)

What was measured:
[1] = tested on: lung cancer cell line A549; assay: THP-1-mediated phagocytic activity against A549 (Example 2); assay type: cell-based, human; conditions: cells cultured 2 days with drug at 250 nM, then anti-CAPRIN-1 humanized antibody #1 5 μg/mL, FIG. 1
Procedure: (§1) Specifically, in each combination test group (a trametinib combination test group, a fluorouracil combination test group and an irinotecan combination test group), the indicated drug used in combination was applied to human cancer cells, and then the cancer cells were cocultured with human monocytic cells (THP-1) in the presence of the anti-CAPRIN-1 antibody, and the antibody-mediated phagocytic activity against the cancer cells by THP-1 was evaluated. The human-derived cancer cells used were melanoma cell line A375 (used only in the trametinib combination test group), colon cancer cell line HCT116, prostate cancer cell line DU145 (used only in the trametinib combination test group), and lung cancer cell line A549 (used only in the trametinib combination test group). […]
(§2) Each cancer cell line after the culture was dissociated with TrypLE Express (Thermo), and the cancer cells were stained by the addition of calcein-AM at a final concentration of 0.02 μg/mL and incubation at 37° C. for 30 minutes. […] Further, dead cells were stained with propidium iodide (PI) (final concentration: 0.1 μg/mL), followed by the measurement of fluorescence from the cells by flow cytometry. […] Thus, the phagocytic activity in this evaluation system was calculated as the ratio (%) of APC-positive/calcein-AM-positive cells to the whole calcein-AM-positive population.

[2] = trametinib in itself (therefore also used as DMSO solvate); cited from earlier work
[3] = tested on: colon cancer cell line HCT116; assay: THP-1-mediated phagocytic activity against HCT116 (Example 2); assay type: cell-based, human; conditions: cells cultured 2 days with drug at 50 nM, then anti-CAPRIN-1 humanized antibody #1 5 μg/mL, FIG. 1, 2
Procedure: as §1, with “group). On a 6-well plate, the human-derived cancer cells were cultured for 2 days in the presence of trametinib for the trametinib combination test group, and cultured for 2 days in the presence of the each drug used in combination for the fluorouracil combination test group and the irinotecan combination test group. The concentration of the drug used in combination was set to a concentration that decreased the proliferation rate of the cancer cells by about half at the completion of culture.” for “group).”
as §2

[4] = tested on: prostate cancer cell line DU145; assay: THP-1-mediated phagocytic activity against DU145 (Example 2); assay type: cell-based, human; conditions: cells cultured 2 days with drug at 250 nM, then anti-CAPRIN-1 humanized antibody #1 5 μg/mL, FIG. 1
Procedure: as §1, §2

melanoma cell line A375 = assay: THP-1-mediated phagocytic activity against A375 (Example 2); assay type: cell-based, human; conditions: cells cultured 2 days with drug at 50 nM, then anti-CAPRIN-1 humanized antibody #1 5 μg/mL, FIG. 1
Procedure: as §1, §2

SMILES: CC(=O)Nc1cccc(-n2c(=O)n(C3CC3)c(=O)c3c(Nc4ccc(I)cc4F)n(C)c(=O)c(C)c32)c1 [trametinib, N-[3-[3-cyclopropyl-5-(2-fluoro-4-iodoanilino)-6,8-dimethyl-2,4,7-trioxopyrido[4,3-d]pyrimidin-1-yl]phenyl]acetamide]
- phagocytic activity against cancer cells [1]: 7%
- solubility [2]: poorly soluble
- phagocytic activity against cancer cells [3]: 45%
- phagocytic activity against cancer cells [4]: 9%
- phagocytic activity against cancer cells (melanoma cell line A375): 49%
